Data from patent US20060074091A1, “Nootropic effect enhancer” (priority 2000, published 2006).

System: Fischer male rats with Meynert's basal nuclei damage
Experiment: Passive avoidance learning test (mneme test) in rats with ibotenic acid injury of Meynert's basal nuclei
Type: in vivo, rat
Settings: 0.1 mg/kg
Experimental: A solution prepared by dissolving ibotenic acid in physiological saline to have a concentration of 8 μg/μl was injected into the Meynert's basal nuclei of Fischer male rats (n=12 to 13, 11-weeks old when used in the experiment). One μl of the solution was injected thereinto over a period of 6 minutes, and then the rats were left as they were for 5 minutes to thereby make them have bilateral injury. Three weeks after the treatment, they were used in the experiment. Before the experiment, they were handled for 3 days. In the mneme test, the rats were first put into the light room of a passive avoidance learning test device, and the latent time taken before they entered the dark room was measured (acclimation trial). […] Then, the rats were made to receive electric shock (0.4 mA, 4 seconds) via the grid of the floor of the dark room (acquirement trial) 24 hours after the acquirement trial, the rats were again transferred into the light room, and the reaction latent time taken before the rats entered the dark room was measured up to at most 300 seconds (retention trial). […] The dose of each of the two substances was determined on the basis of the test results previously made for the efficacy of the single administration of each substance to the same models. […]

| Compound | effect on reaction latent time in single administration (in words) |
| --- | --- |
| COc1cc2c(cc1OC)C(=O)C(CC1CCN(Cc3ccccc3)CC1)C2.Cl (centres unmarked) [E2020, Donepedil Hydrochloride] | ineffective |
| CC(=O)N1CCN(NC(=O)c2ccc(F)cc2)CC1 [FK960, N-(4-acetyl-1-piperazinyl)-p-fluorobenzamide Monohydrate] | ineffective |
